The values below come from patent US11041207B2 (priority 2015, dated 2021).

For data set [1] the following is noted: in vivo; cited from earlier work.
The conditions of data set [2]: human, in vivo.
The next data set has as its system schizophrenia patients. The following applies: human, in vivo.
The conditions of data set [3]: human, in vivo. This is another data set of the same source.
For data set [4] the following is noted: human, in vivo. The source holds these as a separate data set.
Details of data set [5]: species or system human. The following applies: in vivo.
For data set [6], the system named is bipolar disorder patients. As to conditions: in vivo; cited from earlier work.

Where “and” joins values, the source holds several entries; their conditions need not be identical. Identical values can stand only once. Entries after “also recorded” stand apart in the source; their conditions may differ.

Turning to `CCO` [Ethanol], the “effect on circulating proline” value in data set [1] is recorded as “increases circulating proline levels”.

As to `CCCC(CCC)C(=O)O` [VPA, 2-propylpentanoic acid], the “fasting plasma proline, mean±SD” value in data set [2] was found to be 299.29±94.76. In addition, in the data set with schizophrenia patients, the “β (95% CI), bivariate association of VPA treatment with total SANS score” value is −0.578 (−7.157, 6.001); the “β, SANS total score of Val/Val versus Val/Met and Met/Met patients” value was −12.17. The “fasting plasma proline versus patients who did not receive VPA” value in data set [3] is listed as “significantly higher”. Besides, in data set [4], the L-serine level stood at 117 µM and the fasting glycine level was 361 µM. For the same compound, the “patients showing improvement in negative symptoms after treatment onset” value in data set [5] is 2 out of 9 and 5 out of 7 and two and five. For the same compound, the “effect on circulating proline” value in data set [1] is “upregulates circulating proline; also recorded: strong up-regulator of proline levels”. Further, the “blood level considered the lower end of the therapeutic range” value in data set [6] was 50 µg/mL.
